Here are results for three compounds from paper PMC11122421 (Marine Drugs, 2024).

Each structure is given as a SMILES string. Several values for one entry are separate records, joined by “and”; a condition that tells them apart may be missing. Identical values can stand only once. Where a SMILES comes first, the peptide text is derived from it. Bridges are numbered along the chain shown (N, C = ends). The star is where a group is joined. X2 = CN(C)c1ccc2c(-c3cc(C(=O)*)ccc3C(=O)[O-])c3ccc(=[N+](C)C)cc-3oc2c1; X1 = C[N+]1=C(/C=C/C=C2/N(CCCCCC(=O)*)c3ccccc3C2(C)C)C(C)(C)c2ccccc21; BODIPY(FL) = CC1=CC(C)=[N+]2C1=Cc1ccc(CCC(=O)*)n1[B-]2(F)F

One series addresses T1, rat α3β2 nAChR (Rattus norvegicus, UniProt P04757+P12390).
T1 construct: expressed in transfected cells; host or cells: Xenopus laevis oocytes injected with cRNA; plasmids from J. Michael McIntosh (University of Utah)
Put plainly: cell-based.

Another series addresses T2, rat α6/α3β4 nAChRs (Rattus norvegicus, UniProt P04757+P12392+P43143).
T2 construct: expressed in transfected cells; host or cells: Xenopus laevis oocytes injected with cRNA; plasmids from J. Michael McIntosh (University of Utah)
Format: cell-based.

Another series addresses T3, rat α7 nAChRs (Rattus norvegicus, UniProt Q05941).
T3 construct: expressed in transfected cells; host or cells: Xenopus laevis oocytes injected with cRNA; plasmids from J. Michael McIntosh (University of Utah)
Put plainly: cell-based. Format: cell-based.

Assay in series [1]: not given
The source holds these as a separate data set.

The target in series [2] is T4, α7 nAChRs in rat brain slices (Rattus norvegicus, UniProt Q05941).
T4 construct: from tissue; host or cells: frozen brain slices of ten-week-old rats (hippocampus, striatum, cortex, cerebellum)
T4 sequence (Q05941 23-502): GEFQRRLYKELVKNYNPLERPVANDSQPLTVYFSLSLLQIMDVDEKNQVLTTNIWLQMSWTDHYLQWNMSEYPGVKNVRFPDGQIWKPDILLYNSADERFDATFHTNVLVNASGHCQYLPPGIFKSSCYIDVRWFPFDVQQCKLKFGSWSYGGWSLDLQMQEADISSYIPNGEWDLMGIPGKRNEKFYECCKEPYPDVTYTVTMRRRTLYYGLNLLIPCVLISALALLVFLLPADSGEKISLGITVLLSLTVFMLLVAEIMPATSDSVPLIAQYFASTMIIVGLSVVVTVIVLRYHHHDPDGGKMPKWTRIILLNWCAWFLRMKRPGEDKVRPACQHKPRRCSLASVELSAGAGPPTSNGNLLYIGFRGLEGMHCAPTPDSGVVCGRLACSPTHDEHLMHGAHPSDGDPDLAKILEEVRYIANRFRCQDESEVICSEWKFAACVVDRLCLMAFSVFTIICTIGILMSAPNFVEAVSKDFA

T1 sequence (P04757 26-499 limits assumed): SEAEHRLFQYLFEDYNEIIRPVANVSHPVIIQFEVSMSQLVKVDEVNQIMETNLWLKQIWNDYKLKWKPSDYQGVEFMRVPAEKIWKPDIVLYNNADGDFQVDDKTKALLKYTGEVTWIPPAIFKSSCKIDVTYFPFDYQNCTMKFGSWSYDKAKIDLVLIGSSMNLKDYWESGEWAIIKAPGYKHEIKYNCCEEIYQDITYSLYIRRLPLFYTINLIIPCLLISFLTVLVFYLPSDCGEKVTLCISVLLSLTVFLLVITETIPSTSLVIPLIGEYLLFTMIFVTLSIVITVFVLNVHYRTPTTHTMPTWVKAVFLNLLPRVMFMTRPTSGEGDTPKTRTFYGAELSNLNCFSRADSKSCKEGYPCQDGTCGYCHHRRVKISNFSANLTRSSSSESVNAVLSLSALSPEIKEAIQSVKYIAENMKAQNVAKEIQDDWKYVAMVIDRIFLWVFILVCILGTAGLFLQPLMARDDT
T1 sequence (P12390 25-500 limits assumed): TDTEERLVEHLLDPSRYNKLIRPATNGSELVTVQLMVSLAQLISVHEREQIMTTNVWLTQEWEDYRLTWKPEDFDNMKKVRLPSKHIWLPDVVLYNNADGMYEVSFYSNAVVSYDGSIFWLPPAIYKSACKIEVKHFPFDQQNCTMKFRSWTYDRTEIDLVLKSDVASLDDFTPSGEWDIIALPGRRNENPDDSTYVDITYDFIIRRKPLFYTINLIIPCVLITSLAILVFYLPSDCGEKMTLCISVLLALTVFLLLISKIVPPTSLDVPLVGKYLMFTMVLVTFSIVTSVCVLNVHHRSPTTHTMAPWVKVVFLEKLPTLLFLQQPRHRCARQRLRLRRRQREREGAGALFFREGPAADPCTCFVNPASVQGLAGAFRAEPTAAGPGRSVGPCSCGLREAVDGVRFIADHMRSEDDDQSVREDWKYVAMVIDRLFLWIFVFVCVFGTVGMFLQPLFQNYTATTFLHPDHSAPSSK
T3 sequence (Q05941 23-502): as the sequence (Q05941 23-502) above
T2 sequence (P43143+P04757 fused with the stated changes): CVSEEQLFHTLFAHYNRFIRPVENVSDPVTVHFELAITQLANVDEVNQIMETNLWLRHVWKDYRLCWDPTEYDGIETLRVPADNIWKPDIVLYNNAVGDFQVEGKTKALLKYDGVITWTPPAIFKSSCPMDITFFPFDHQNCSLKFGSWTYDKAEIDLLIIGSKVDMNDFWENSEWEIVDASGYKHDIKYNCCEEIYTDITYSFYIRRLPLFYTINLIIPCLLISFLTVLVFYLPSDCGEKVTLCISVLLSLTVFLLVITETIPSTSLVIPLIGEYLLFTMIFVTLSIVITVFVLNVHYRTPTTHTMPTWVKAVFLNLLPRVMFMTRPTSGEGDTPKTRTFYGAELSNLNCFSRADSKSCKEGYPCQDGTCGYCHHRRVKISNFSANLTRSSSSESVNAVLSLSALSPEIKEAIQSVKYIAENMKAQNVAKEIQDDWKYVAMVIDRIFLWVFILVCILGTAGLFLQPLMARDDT
T2 sequence (P12392 21-495): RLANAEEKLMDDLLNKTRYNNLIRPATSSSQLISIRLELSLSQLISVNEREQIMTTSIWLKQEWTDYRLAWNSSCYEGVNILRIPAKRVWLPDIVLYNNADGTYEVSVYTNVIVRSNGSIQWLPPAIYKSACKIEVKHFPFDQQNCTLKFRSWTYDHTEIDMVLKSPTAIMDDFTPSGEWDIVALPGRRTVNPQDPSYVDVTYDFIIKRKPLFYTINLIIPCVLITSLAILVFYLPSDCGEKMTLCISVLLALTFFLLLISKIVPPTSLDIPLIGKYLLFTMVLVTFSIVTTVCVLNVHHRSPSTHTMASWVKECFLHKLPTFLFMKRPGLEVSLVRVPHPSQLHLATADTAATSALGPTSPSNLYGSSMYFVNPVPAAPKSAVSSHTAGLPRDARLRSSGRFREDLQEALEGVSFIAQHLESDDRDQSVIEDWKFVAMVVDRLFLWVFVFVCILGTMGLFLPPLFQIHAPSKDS

The IC50 is the midpoint of a concentration-inhibition curve. A lower IC50 goes with greater potency in that assay. For the compound `CC1=CC(C)=[N+]2C1=Cc1ccc(CCC(=O)NCC(=O)N[C@H]3CSSC[C@@H]4NC(=O)[C@@H]5CCCN5C(=O)[C@@H]5CCCN5C(=O)[C@H](CC(N)=O)NC(=O)[C@H](CO)NC(=O)[C@H](CSSC[C@@H](C(N)=O)NC(=O)[C@H](Cc5c[nH]cn5)NC(=O)[C@H](CCC(=O)O)NC(=O)[C@H](Cc5c[nH]cn5)NC(=O)[C@H](C)NC4=O)NC3=O)n1[B-]2(F)F` [LvIB-B] ({BODIPY(FL)}-GCCSNPPCAHEHC-NH2; disulfide 2-8, 3-13), the excitation wavelength (Ex) worked out at 505 nm. Further, at rat α3β2 nAChR, the inhibition rate turned out to be 64 ± 4%; the half-inhibitory concentration (IC50) is 2550 nM and 10900 nM. For the same compound, the inhibition rate on rat α6/α3β4 nAChRs came out at 0 ± 2%. Also, at rat α7 nAChRs, it took 187 nM to reach half-maximal inhibition (IC50) and the “inhibition rate of ACh-evoked current” value is 96 ± 0.11%. This compound displayed an emission wavelength (Em) in series [1] of 510 nm.

`C[C@@H]1NC(=O)[C@@H]2CSSC[C@H](NC(=O)CNC(=O)CCCCCN3/C(=C/C=C/C4=[N+](C)c5ccccc5C4(C)C)C(C)(C)c4ccccc43)C(=O)N[C@@H](CSSC[C@@H](C(N)=O)NC(=O)[C@H](Cc3c[nH]cn3)NC(=O)[C@H](CCC(=O)O)NC(=O)[C@H](Cc3c[nH]cn3)NC1=O)C(=O)N[C@@H](CO)C(=O)N[C@@H](CC(N)=O)C(=O)N1CCC[C@H]1C(=O)N1CCC[C@H]1C(=O)N2` [LvIB-C] (X1-GCCSNPPCAHEHC-NH2; disulfide 2-8, 3-13) showed an excitation wavelength (Ex) of 550 nm. On rat α3β2 nAChR, the inhibition rate was determined as 50 ± 2%; the 50% inhibitory concentration (IC50) was 10900 nM and 2550 nM. The inhibition rate on rat α6/α3β4 nAChRs is listed as 10 ± 0.3%. On rat α7 nAChRs, the “Hill Slope” value is 1.39 (1.05–1.72), the IC50 was 298 nM, the “inhibition rate of ACh-evoked current” value is on record as 94 ± 0.20% and the “time to ~90% current restoration after block (recovery/washout)” value is recorded as at most 14 min. The emission wavelength (Em) in series [1] was found to be 570 nm. Moreover, the “fluorescence labelling of brain regions” value in series [2] is “distinct fluorescence distribution in the hippocampus, striatum, and cortex”.

With `C[C@@H]1NC(=O)[C@@H]2CSSC[C@H](NC(=O)CNC(=O)c3ccc(C(=O)[O-])c(-c4c5ccc(=[N+](C)C)cc-5oc5cc(N(C)C)ccc45)c3)C(=O)N[C@@H](CSSC[C@@H](C(N)=O)NC(=O)[C@H](Cc3c[nH]cn3)NC(=O)[C@H](CCC(=O)O)NC(=O)[C@H](Cc3c[nH]cn3)NC1=O)C(=O)N[C@@H](CO)C(=O)N[C@@H](CC(N)=O)C(=O)N1CCC[C@H]1C(=O)N1CCC[C@H]1C(=O)N2` [LvIB-R] (X2-GCCSNPPCAHEHC-NH2; disulfide 2-8, 3-13), the excitation wavelength (Ex) was determined as 555 nm. On rat α7 nAChRs, the “Hill Slope” value was 0.89 (0.67–1.14), 643 nM corresponded to half-maximal inhibition (IC50), the “inhibition rate of ACh-evoked current” value was determined as 87 ± 0.24% and the “time to ~90% current restoration after block (recovery/washout)” value was at most 14 min. This compound also came in with an emission wavelength (Em) in series [1] of 580 nm. The “fluorescence labelling of brain regions” value in series [2] was “distinct fluorescence distribution in the hippocampus, striatum, and cortex”.
